Experimental data taken from US6703400B2, “Methods for treating multidrug resistance” (Schering Corporation, priority 2001, dated 2004).
Where two headings read alike, the source gives them in different places.

Tests used:
[1] = target: MDR1 gene product transport enzyme (P-gp) in CR1R12 cell membranes (Cricetulus griseus, UniProt P21448); assay: P-gp-mediated ATP hydrolysis (phosphate release) assay with CR1R12 membrane microsomes; type: biochemical, rodent
From the text: ATP hydrolysis as nmol/min/mg is plotted against SCH66336 concentration.
The second Example monitored the consumption of ATP, a high-energy biological energy source required for transporter enzyme function. ATP is converted to two other chemicals—ADP and inorganic phosphate—during the P-gp mediated transport porcess.
The method was modified to be carried out in a 96-well microplate.
CR1R12 cell membranes enriched with the MDR1 gene product transport enzyme were used for preparation of membrane microsomes. Cells were washed with complete Hanks' buffer before being resuspended in 10 ml lysis buffer (Tris-25 HCl, 50 mM; mannitol, 50 mM; EGTA, 2 mM; and dithiothreitol, 2 mM; pH 7.0 at 25° C.) containing protease inhibitors (phenylmethylsulfonyl fluoride, 1 mM; aprotinin, 10 μg/ml; leupeptin, 10 μg/ml). All subsequent steps were performed at 4° C. The cells were lysed by nitrogen cavitation (Parr Instrument Co., Moline, Ill.) at 500 psi for 15 min twice. Nuclei and mitochondria were sedimented by centrifugation at 4000×g for 10 min. The microsomal membrane fraction was then sedimented by centrifugation at 100,000×g for 60 min. […] Aliquots of membrane microsomes were rapidly frozen and stored at −80 ° C. until analysis.
The microsomes were thawed on ice prior to diluting to 3.5 μg protein per well in ice-cold ATPase buffer (sodium ATP, 3 mM; KCl, 50 mM; MgSO4, 10 mM; dithiothreitol, 3 mM; Tris-HCl, 50 mM; pH 7.0) containing 0.5 mM EGTA (to inhibit Ca-ATPase), 0.5 mM ouabain (to inhibit the Na/K-ATPase), and 3 mM sodium azide (to inhibit the mitochondrial ATPase). The total incubation volume including the various inhibitors was 100 μl. The incubation reaction was initiated by transferring the plate from ice to 37° C. and incubating for 30 min; the reaction was terminated by the addition of 50 μl 12% SDS solution at room temperature, followed by the addition of 50 μl of a mixture solution of (equal volumes) 18% fresh ascorbic acid in 1N HCl and 3% ammonium molybdate in 1 N HCl. After 4 min, 100 μl of a solution of 2% sodium citrate and 2% sodium meta-arsenite in 2% acetic acid was added to fix the color formation. […] The respective values for background with ATPase assay buffer alone were obtained in parallel and subtracted from the values for experimental samples.

[2] = target: T1, P-gp efflux pump in CR1R12 cells (Cricetulus griseus, UniProt P21448); assay: cell-based
T1 sequence (P21448 whole entry): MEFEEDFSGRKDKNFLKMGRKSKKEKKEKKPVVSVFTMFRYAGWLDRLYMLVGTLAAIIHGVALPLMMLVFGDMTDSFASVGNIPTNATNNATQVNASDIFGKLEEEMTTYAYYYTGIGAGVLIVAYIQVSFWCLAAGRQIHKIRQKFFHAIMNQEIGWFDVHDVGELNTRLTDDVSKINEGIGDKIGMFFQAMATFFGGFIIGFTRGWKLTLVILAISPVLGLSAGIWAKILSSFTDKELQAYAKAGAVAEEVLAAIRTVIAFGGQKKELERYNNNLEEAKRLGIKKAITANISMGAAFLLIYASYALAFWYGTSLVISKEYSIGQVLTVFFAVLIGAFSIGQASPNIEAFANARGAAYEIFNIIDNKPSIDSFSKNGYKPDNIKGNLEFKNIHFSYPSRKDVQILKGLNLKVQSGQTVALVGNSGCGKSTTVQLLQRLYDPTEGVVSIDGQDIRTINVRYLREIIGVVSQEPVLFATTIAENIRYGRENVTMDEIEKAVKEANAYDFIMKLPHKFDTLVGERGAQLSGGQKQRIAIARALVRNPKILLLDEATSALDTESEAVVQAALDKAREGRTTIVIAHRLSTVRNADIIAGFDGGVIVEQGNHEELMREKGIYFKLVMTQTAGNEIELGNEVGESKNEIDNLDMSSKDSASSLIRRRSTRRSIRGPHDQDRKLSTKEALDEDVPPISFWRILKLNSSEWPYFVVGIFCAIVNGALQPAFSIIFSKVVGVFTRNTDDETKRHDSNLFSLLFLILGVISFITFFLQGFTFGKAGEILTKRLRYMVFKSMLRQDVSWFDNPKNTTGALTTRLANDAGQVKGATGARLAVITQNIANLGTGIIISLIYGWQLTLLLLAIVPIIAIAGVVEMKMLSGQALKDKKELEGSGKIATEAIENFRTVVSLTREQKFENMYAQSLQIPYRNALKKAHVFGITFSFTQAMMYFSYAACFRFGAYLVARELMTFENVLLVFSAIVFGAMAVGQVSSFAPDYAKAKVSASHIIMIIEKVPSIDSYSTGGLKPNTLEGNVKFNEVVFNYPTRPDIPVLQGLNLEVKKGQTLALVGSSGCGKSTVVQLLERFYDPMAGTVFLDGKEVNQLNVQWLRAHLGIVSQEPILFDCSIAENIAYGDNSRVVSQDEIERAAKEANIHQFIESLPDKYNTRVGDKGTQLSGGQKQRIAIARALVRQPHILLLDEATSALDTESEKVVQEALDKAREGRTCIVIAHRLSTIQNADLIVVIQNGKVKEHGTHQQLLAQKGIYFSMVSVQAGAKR
Protocol: (§1) The efflux phase or incubation was 30 min in all cases. The average number of cells per assay was 10,000. The function for the line through the data is the Hill equation: v=VmaxSn/(K′+Sn). The parameters IC50 and the Hill coefficient along with the standard deviation are shown on the respective graphs.
(§2) CR1R12 cell line, provided by Dr. Alan Senior (Univ. of Rochester), was maintained in complete α-minimum essential medium (α-MEM) supplemented with 10% FBS, penicillin/streptomycin (50 units/50 μg/ml) in a 5% CO2-95% air atmosphere at 37° C. Colchicine (0.5 μg/ml) was added to the culture medium. Cells were grown to 80-90% confluency and treated with trypsin-EDTA before subculturing.
(§3) Fluorescence measurements of individual cells were performed using a Becton-Dickinson FACScalibur fluorescence-activated cell sorter (San Jose, Calif.), equipped with an ultraviolet argon laser (excitation at 488 nm, emission at 530/30 and 570/30 nm band-pass filters). […]
(§4) Cell viability was assessed using exclusion of 0.4% trypan blue as well as propidium iodide staining. Dead cells in which propidium iodide was bound to double strands of DNA or RNA were detected in certain regions of the cytometry dot plots and not included in the final data calculations.
(§5) The DNR fluorescence intensity of individual cells was recorded as histograms. […]

[3] = target: T2, gene product of human MDR1 (P-gp) in NIH 3T3 G185 cells (Homo sapiens, UniProt P08183); assay: cell-based
T2 sequence (P08183 whole entry): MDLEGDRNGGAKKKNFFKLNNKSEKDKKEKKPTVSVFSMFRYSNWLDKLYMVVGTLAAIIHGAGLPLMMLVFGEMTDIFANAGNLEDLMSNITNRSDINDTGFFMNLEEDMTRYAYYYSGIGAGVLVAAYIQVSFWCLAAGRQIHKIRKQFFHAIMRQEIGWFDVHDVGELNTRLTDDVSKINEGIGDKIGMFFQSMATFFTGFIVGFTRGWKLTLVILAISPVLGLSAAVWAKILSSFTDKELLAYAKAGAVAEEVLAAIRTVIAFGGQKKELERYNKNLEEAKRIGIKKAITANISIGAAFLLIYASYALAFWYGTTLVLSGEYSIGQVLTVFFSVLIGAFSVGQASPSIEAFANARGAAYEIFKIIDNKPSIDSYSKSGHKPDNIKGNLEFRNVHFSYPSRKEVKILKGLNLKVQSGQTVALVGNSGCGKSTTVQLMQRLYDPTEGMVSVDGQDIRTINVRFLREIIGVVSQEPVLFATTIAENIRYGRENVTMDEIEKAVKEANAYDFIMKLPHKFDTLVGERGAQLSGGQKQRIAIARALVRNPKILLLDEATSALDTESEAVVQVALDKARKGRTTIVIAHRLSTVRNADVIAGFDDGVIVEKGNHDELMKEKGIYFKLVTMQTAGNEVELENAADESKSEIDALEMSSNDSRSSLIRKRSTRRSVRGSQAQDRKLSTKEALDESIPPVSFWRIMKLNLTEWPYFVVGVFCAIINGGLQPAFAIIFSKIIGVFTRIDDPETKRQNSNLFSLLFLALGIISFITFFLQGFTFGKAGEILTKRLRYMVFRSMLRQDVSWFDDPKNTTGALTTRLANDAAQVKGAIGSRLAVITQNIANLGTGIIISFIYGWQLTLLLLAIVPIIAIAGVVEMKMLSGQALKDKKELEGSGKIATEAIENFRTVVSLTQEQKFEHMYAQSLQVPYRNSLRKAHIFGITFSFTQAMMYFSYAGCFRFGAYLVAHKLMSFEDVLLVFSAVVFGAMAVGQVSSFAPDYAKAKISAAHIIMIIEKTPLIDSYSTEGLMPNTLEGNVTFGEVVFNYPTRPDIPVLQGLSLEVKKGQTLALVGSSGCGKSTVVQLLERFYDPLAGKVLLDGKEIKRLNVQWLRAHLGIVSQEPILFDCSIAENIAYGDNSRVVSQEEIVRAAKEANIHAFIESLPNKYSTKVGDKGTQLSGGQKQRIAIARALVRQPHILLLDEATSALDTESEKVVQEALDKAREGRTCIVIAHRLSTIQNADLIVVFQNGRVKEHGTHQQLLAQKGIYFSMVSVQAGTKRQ
Protocol: (§6) The efflux phase or incubation was 30 min in all cases. The average number of cells per assay was 10,000.
(§7) CR1R12 cell line, provided by Dr. Alan Senior (Univ. of Rochester), was maintained in complete α-minimum essential medium (α-MEM) supplemented with 10% FBS, penicillin/streptomycin (50 units/50 μg/ml) in a 5% CO2-95% air atmosphere at 37° C. Colchicine (0.5 μg/ml) was added to the culture medium. Cells were grown to 80-90% confluency and treated with trypsin-EDTA before subculturing. The NIH 3T3 G185 cell line presenting the gene product of human MDR1 was licensed from NIH and maintained in DMEM.
(§8) Fluorescence measurements of individual cells were performed using a Becton-Dickinson FACScalibur fluorescence-activated cell sorter (San Jose, Calif.), equipped with an ultraviolet argon laser (excitation at 488 nm, emission at 530/30 and 570/30 nm band-pass filters). Analysis was gated to include single cells on the basis of forward and side light-scatter and was based on acquisition of data from 10,000 cells. […] A direct functional assay for the P-gp efflux pump in CR1R12 cells was performed with the flow cytometer (Wang et al., 2000).
as §4
(§9) The DNR fluorescence intensity of individual cells was recorded as histograms. The mean fluorescence intensity of 10,000 cells was used for comparison among different conditions. Vanadate was selected as a positive control to normalize the measurements because it can maximally inactivate the P-gp efflux pump. Relative fluorescence was used for quantitation and comparison among different compounds. The relative fluorescence (% inactivation) represents a ratio obtained through the following formula: the geometric mean fluorescence of a discrete sample divided by the geometric mean fluorescence in the presence of 5 mM vanadate, times 100, or expressed as [formula]

[4] = target: T1, P-gp efflux pump in CR1R12 cells; settings: compared with verapamil
Protocol: as §1, §2, §3, §4, §5

P-gp (human MDR1) = P-gp (human MDR1) (Homo sapiens, UniProt P08183); assay: in vitro
Protocol: as §6, §7, §8, §4, §9

P-gp = P-gp (Cricetulus griseus, UniProt P21448); assay: Retention of rhodamine 123 (Rho), fluorescent P-gp substrate, in cells
P-gp, sequence (P21448 whole entry): as the sequence (P21448 whole entry) above
Protocol: as §8, §9

[5] = target: T2, gene product of human MDR1 (P-gp) in NIH 3T3 G185 cells; settings: IC50 G185 vs IC50 CR1R12
Protocol: as §6, §7, §8, §4, §9

MDR1 gene product transport enzyme (P-gp) in CR1R12 cell membranes, sequence (P21448 whole entry): as above

With C=C[C@H]1C[N@@]2CC[C@H]1C[C@@H]2[C@@H](O)c1ccnc2ccc(OC)cc12 [Quinidine, quinidine, reference compound] the Vmax % control [1] was 239 % control.
With NC(=O)N1CCC(CC(=O)N2CCC(C3c4ncc(Br)cc4CCc4cc(Cl)cc(Br)c43)CC2)CC1 (stereo not drawn) [SCH66336] the IC50 [2] was roughly 9 µM, the IC50 [3] was roughly 3 µM and the “extent of inhibition of DNR transport” value [4] was “exceeding that of verapamil”. The IC50 at 30 min (P-gp (human MDR1)) was less than 3 µM, the IC50 (P-gp) was roughly 11 µM and the “potency in G185 cells relative to CR1R12 cell line” value [5] was “three times as potent”. The “effect on rate of ATP hydrolysis relative to baseline rate” value [1] was “concentration-dependent decrease”, the Vmax ([1]; ATP hydrolysis, Example B results text) was roughly 28 % baseline and the Vmax ([1]; ATP hydrolysis, FIG. 2 legend) was 28 % of control.
With CC(=O)[C@H]1CC[C@H]2[C@@H]3CCC4=CC(=O)CC[C@]4(C)[C@H]3CC[C@]12C [Progesterone, reference compound] the Vmax % control ([1]; ATP hydrolysis, Table 1) was 236 % control.
Compound COc1cccc2c1C(=O)c1c(O)c3c(c(O)c1C2=O)C[C@@](O)(C(C)=O)C[C@@H]3O[C@H]1C[C@H](N)[C@H](O)[C@H](C)O1 [Daunorubicin, reference compound] has a Vmax % control ([1]; ATP hydrolysis, Table 1) of 170 % control.
